These results are taken from patent US5637725A, “Substituted aryl and cycloalkyl imidazolones; a new class of GABA brain receptor ligands” (Neurogen Corporation, priority 1995, dated 1997).

Structures are written as SMILES. pKi: −log10 of the molar value.

The first assay concerns the target GABAa receptor. Kind of assay: [3H]-RO15-1788 (Flumazenil) binding assay for GABAa receptor activity, rat cortical tissue. Conditions: 0.5 nM 3H-RO15-1788; rat cortical tissue homogenate; 30 min at 4° C.; nonspecific binding with 1.0 mM diazepam. On the procedure:
The pharmaceutical utility of compounds of this invention are indicated by the following assay for GABAa receptor activity.
Assays are carried out as described in Thomas and Tallman (J. Bio. Chem. 156: 9838-9842, J. Neurosci. 3: 433-440, 1983). Rat cortical tissue is dissected and homogenized in 25 volumes (w/v) of 0.05M Tris HCl buffer (pH 7.4 at 4° C.). The tissue homogenate is centrifuged in the cold (4°) at 20,000×g for 20'. The supernatant is decanted and the pellet is rehomogenized in the same volume of buffer and again centrifuged at 20,000×g. The supernatant is decanted and the pellet is frozen at -20° C. overnight. The pellet is then thawed and rehomogenized in 25 volume (original wt/vol) of buffer and the procedure is carried out twice. The pellet is finally resuspended in 50 volumes (w/vol of 0.05M Tris HCl buffer (pH 7.4 at […]).
Incubations contain […] of radioligand 0.5 nM (^3 H-RO15-1788 [^3 H-Flumazenil] specific activity 80 Ci/mmol), drug or blocker and buffer to a total volume of […]. Incubations are carried for 30 min at 4° C. then are rapidly filtered through GFB filters to separate free and bound ligand. Filters are washed twice with fresh 0.05M Tris HCl buffer (pH 7.4 at 4° C.) and counted in a liquid scintillation counter. […] diazepam is added to some tubes to determine nonspecific binding. Data are collected in triplicate determinations, averaged and % inhibition of total specific binding is calculated. Total Specific Binding=Total-Nonspecific. In some cases, the amounts of unlabeled drugs is varied and total displacement curves of binding are carried out. Data are converted to a form for the calculation of IC50 and Hill Coefficient (nH).
Usually pKi stands for −log10 of the Ki, conventionally taken in molar units. In turn, `O=c1[nH]c2c(n1-c1nc3ccc(F)c(F)c3o1)CCCCC2` [Compound 1] had a pKi of 8.52. On the same count and under the same terms, to `O=c1[nH]c2cc(F)ccc2n1-c1nc2ccc(F)cc2o1` [Compound 4, 3-(2-(6-fluorobenzoxazyl))-6-fluorobenzimidazol-2-(1H)-one] belongs 8.30; to `O=c1[nH]c2cc(F)ccc2n1-c1nc2cccc(F)c2o1` [Compound 3, 3-(2-(7-fluorobenzoxazyl))-6-fluorobenzimidazol-2-(1H)-one], 7.85. `O=c1[nH]c2c(n1-c1nc3ccc(F)c(F)c3o1)CCCC2` [Compound 5] had a pKi of 7.68.

`COc1ccc2oc(-n3c4c([nH]c3=O)CCCC4)nc2c1` [Compound 6]: the pKi is 7.09.

Regarding `O=c1[nH]c2c(n1-c1nc3ccc(F)cc3o1)CCCCC2` [Compound 2], the pKi was 8.34.

The next assay relates to GABA receptor.
Assay: not given
Conditions: brain membranes; cited from earlier work.
In the case of `CN1CCc2cc3c(cc2[C@H]1[C@@H]1OC(=O)c2c1ccc1c2OCO1)OCO3` [(+) bicuculline], the “blockade of enhancement of benzodiazepine binding by GABA agonists” value is reported as “blocked”. Consider `CN1CCc2cc3c(cc2[C@@H]1[C@H]1OC(=O)c2c1ccc1c2OCO1)OCO3` [(-) bicuculline], for which the “blockade of enhancement of benzodiazepine binding by GABA agonists” value was “much less active”.
